± gives the expanded uncertainty stated by the source.
Conditions: for mass density: 100 kPa, Liquid, buoyancy

CCC[n+]1ccc(C)cc1.O=S(=O)([N-]S(=O)(=O)C(F)(F)F)C(F)(F)F
Conditions	mass density [kg/m3]
268.1 K	1482.1 ± 0.64
278.71 K	1469.95 ± 0.64
283.45 K	1465.84 ± 0.64
288.19 K	1461.42 ± 0.64
293.46 K	1456.03 ± 0.64
298.38 K	1450.93 ± 0.64
303.12 K	1446.6 ± 0.64
308.24 K	1440.93 ± 0.64
313.15 K	1435.96 ± 0.64
318.2 K	1431.59 ± 0.64
323.16 K	1426.43 ± 0.64
328.14 K	1421.84 ± 0.64
333.57 K	1416.94 ± 0.64
338.25 K	1412.36 ± 0.64
343.8 K	1407.53 ± 0.64
348.11 K	1402.8 ± 0.64
353.25 K	1398.13 ± 0.64
357.74 K	1394 ± 0.64
362.63 K	1389.16 ± 0.64

surface tension liquid-gas [mN/m]
Conditions	Ring tensiometer	Wilhelmy plate
288.19 K	35.82 ± 0.5	–
288.22 K	–	35.61 ± 0.08
293.49 K	35.56 ± 0.5	35.39 ± 0.08
298.37 K	35.36 ± 0.5	35.2 ± 0.08
303.11 K	35.17 ± 0.5	–
303.12 K	–	35 ± 0.08
308.15 K	34.96 ± 0.49	–
308.17 K	–	34.85 ± 0.08
313.06 K	34.66 ± 0.49	34.65 ± 0.08
318.14 K	–	34.48 ± 0.08
318.15 K	34.46 ± 0.49	–
323.06 K	–	34.25 ± 0.08
323.07 K	34.23 ± 0.49	–
327.97 K	33.95 ± 0.48	–
328 K	–	34.04 ± 0.08
332.97 K	33.7 ± 0.48	–
333.36 K	–	33.79 ± 0.08
338.08 K	–	33.6 ± 0.08
338.17 K	33.44 ± 0.48	–
343.75 K	–	33.43 ± 0.08
343.8 K	33.2 ± 0.48	–
347.87 K	–	33.2 ± 0.08
348.11 K	32.98 ± 0.47	–
353.29 K	–	33.01 ± 0.08
353.47 K	32.7 ± 0.47	–
357.58 K	–	32.83 ± 0.08
357.72 K	32.42 ± 0.47	–
362.45 K	–	32.61 ± 0.08
362.65 K	32.22 ± 0.47	–

CCC[n+]1ccccc1.O=S(=O)([N-]S(=O)(=O)C(F)(F)F)C(F)(F)F [1-propylpyridinium bis((trifluoromethyl)sulfonyl)amide]
Conditions	surface tension liquid-gas [mN/m]
318.35 K, Wilhelmy plate	34.52 ± 0.06
318.38 K, Ring tensiometer	34.67 ± 0.48
322.86 K, Wilhelmy plate	34.29 ± 0.06
322.89 K, Ring tensiometer	34.46 ± 0.48
328.15 K, Wilhelmy plate	34.02 ± 0.06
328.19 K, Ring tensiometer	34.21 ± 0.48
333.17 K, Wilhelmy plate	33.75 ± 0.06
333.21 K, Ring tensiometer	33.97 ± 0.48
338 K, Wilhelmy plate	33.56 ± 0.06
338.03 K, Ring tensiometer	33.8 ± 0.47
343.1 K, Wilhelmy plate	33.35 ± 0.06
343.11 K, Ring tensiometer	33.56 ± 0.47
347.59 K, Ring tensiometer	33.34 ± 0.47
347.63 K, Wilhelmy plate	33.13 ± 0.06
353.31 K, Wilhelmy plate	32.87 ± 0.06
353.34 K, Ring tensiometer	33.1 ± 0.47
358.35 K, Wilhelmy plate	32.64 ± 0.06
358.37 K, Ring tensiometer	32.82 ± 0.46
362.09 K, Wilhelmy plate	32.43 ± 0.06
362.18 K, Ring tensiometer	32.61 ± 0.46

Conditions	mass density [kg/m3]
318.41 K	1468.8 ± 0.54
323.02 K	1464.45 ± 0.54
328.3 K	1459.61 ± 0.54
333.28 K	1454.58 ± 0.54
338.11 K	1450.05 ± 0.54
343.18 K	1445.34 ± 0.54
347.36 K	1440.68 ± 0.54
353.35 K	1435.49 ± 0.54
357.87 K	1430.78 ± 0.54
362.15 K	1426.55 ± 0.54

CCC[n+]1ccccc1C.O=S(=O)([N-]S(=O)(=O)C(F)(F)F)C(F)(F)F
surface tension liquid-gas [mN/m]
Conditions	Ring tensiometer	Wilhelmy plate
264.98 K	37.98 ± 0.53	–
274.35 K	37.65 ± 0.52	–
278.08 K	37.48 ± 0.52	–
283.24 K	37.32 ± 0.52	–
283.37 K	–	36.98 ± 0.07
288.21 K	37.06 ± 0.52	–
288.25 K	–	36.82 ± 0.07
293.4 K	36.9 ± 0.52	–
293.42 K	–	36.65 ± 0.07
298.31 K	36.64 ± 0.51	36.5 ± 0.07
302.93 K	36.45 ± 0.51	–
303.05 K	–	36.31 ± 0.07
307.78 K	36.29 ± 0.51	–
307.82 K	–	36.11 ± 0.07
312.97 K	36.07 ± 0.51	35.95 ± 0.07
318.38 K	–	35.76 ± 0.07
318.39 K	35.83 ± 0.51	–
322.88 K	–	35.52 ± 0.07
322.94 K	35.54 ± 0.5	–
328.34 K	35.29 ± 0.5	35.32 ± 0.07
333.16 K	35.03 ± 0.5	35.12 ± 0.07
337.5 K	34.74 ± 0.5	–
337.93 K	–	34.92 ± 0.07
343.2 K	–	34.77 ± 0.07
343.21 K	34.63 ± 0.5	–
347.6 K	–	34.53 ± 0.07
347.65 K	34.27 ± 0.49	–
353.02 K	34.14 ± 0.49	34.38 ± 0.07
359.26 K	–	34.14 ± 0.07
359.32 K	33.83 ± 0.49	–
363.55 K	–	33.94 ± 0.07
363.67 K	33.73 ± 0.49	–

Conditions	mass density [kg/m3]
274.36 K	1487.31 ± 0.6
278.09 K	1484.28 ± 0.6
283.39 K	1478.78 ± 0.6
288.24 K	1473.7 ± 0.6
293.42 K	1468.58 ± 0.6
298.29 K	1464.23 ± 0.6
303.1 K	1459.95 ± 0.6
307.9 K	1454.39 ± 0.6
313.05 K	1449.74 ± 0.6
318.4 K	1444.8 ± 0.6
322.98 K	1440.18 ± 0.6
328.44 K	1435.36 ± 0.6
333.33 K	1430.49 ± 0.6
338.04 K	1426.36 ± 0.6
343.34 K	1421.49 ± 0.6
347.7 K	1417.08 ± 0.6
353.28 K	1412.49 ± 0.6
359.15 K	1407.9 ± 0.6
363.7 K	1403.29 ± 0.6

CCC[n+]1cccc(C)c1.O=S(=O)([N-]S(=O)(=O)C(F)(F)F)C(F)(F)F
surface tension liquid-gas [mN/m]
Conditions	Ring tensiometer	Wilhelmy plate
264.14 K	36.35 ± 0.5	–
268.06 K	36.23 ± 0.5	–
273.39 K	36.1 ± 0.5	–
273.45 K	–	35.78 ± 0.06
278.42 K	35.88 ± 0.5	35.59 ± 0.06
283.19 K	35.6 ± 0.49	–
283.2 K	–	35.41 ± 0.06
288.5 K	35.39 ± 0.49	–
288.67 K	–	35.22 ± 0.06
292.92 K	35.23 ± 0.49	–
292.99 K	–	35.06 ± 0.06
298.42 K	35.03 ± 0.49	–
298.44 K	–	34.88 ± 0.06
303.1 K	34.83 ± 0.48	–
303.12 K	–	34.68 ± 0.06
308.03 K	34.64 ± 0.48	–
308.04 K	–	34.53 ± 0.06
312.72 K	–	34.29 ± 0.06
312.75 K	34.39 ± 0.48	–
318.22 K	34.12 ± 0.48	–
318.25 K	–	34.08 ± 0.06
323.19 K	–	33.91 ± 0.06
323.23 K	33.95 ± 0.47	–
328.11 K	33.69 ± 0.47	33.65 ± 0.06
333.15 K	–	33.46 ± 0.06
333.21 K	33.43 ± 0.47	–
339.21 K	–	33.18 ± 0.06
339.28 K	33.18 ± 0.46	–
342.59 K	33.03 ± 0.46	–
342.65 K	–	33.08 ± 0.06
347.77 K	–	32.85 ± 0.06
347.91 K	32.78 ± 0.46	–
352.59 K	–	32.7 ± 0.06
352.62 K	32.49 ± 0.46	–

Conditions	mass density [kg/m3]
264.25 K	1481.37 ± 0.82
268.17 K	1476.75 ± 0.82
273.62 K	1471.18 ± 0.82
278.64 K	1466.69 ± 0.82
283.23 K	1461.95 ± 0.82
288.58 K	1456.8 ± 0.82
293 K	1452.82 ± 0.82
298.44 K	1448.15 ± 0.82
303.17 K	1443.76 ± 0.82
308.13 K	1438.23 ± 0.82
312.76 K	1433.63 ± 0.82
318.32 K	1428.63 ± 0.82
323.28 K	1423.98 ± 0.82
328.19 K	1419.2 ± 0.82
333.31 K	1414.52 ± 0.82
339.09 K	1409.83 ± 0.82
342.77 K	1406.02 ± 0.82
348.02 K	1401 ± 0.82
352.77 K	1396.52 ± 0.82
358.08 K	1391.47 ± 0.82
363.28 K	1386.7 ± 0.82

From the NIST ThermoML archive (doi:10.1016/j.fluid.2016.10.004)
